Holding throughout (assay type): cell-based, rat
Data set [1] concerns neuronal cells. Kind of data set: Cell viability in primary neuronal cells with or without CK and AR antagonists. The settings on record: for protection of neurons against neuroinflammatory insult (cell viability): 30 min, with CK. How it is done:
Neurons were obtained from hippocampus or cortex of embryos. Briefly, pregnant rat was scarified and the uterus removed. Embryos were taken out from the uterus and brains were obtained. After removing the meninges, hippocampus and cortex were dissected and homogenated with tweezers. The result was incubated with trypsin for 15 min at 37 °C and then centrifuged 2 min at 1000 rpm. The pellet was resuspended with 15 mL of HBSS/0.37% Glucose/30% FBS and centrifuged as before for three times. Finally, the pellet was resuspended with 15 mL of neurobasal media supplemented with 25 µM of glutamine. The result was filtered and plated. Cells were plated in 24 well plates at 10^5 cells/well [26].
(§1) 1.7 × 10^4 mixed glial cells were cultured in 98 μL of the specific medium in a 96 well plate overnight. The next day 2 μL of ligand or CK cocktail were added to the well. After all treatments, 20 µL of CellTiter 96® AQueous One Solution Reagent was added in a final volume of 100 µL. Absorbance was read at 490 nm using the plate reader GENiosPro. Cell viability was calculated as percentage using the following formula: Cell viability =OD mean of treated cells/OD mean of control cells × 100

For data set [2], the system named is mixed glial cells. Kind of data set: Hoechst assay, cell area and circularity in mixed glial cells. The settings on record: compound 1 pre-treatment, compound 2 post-treatment, with CK cocktail. As for the experimental part: This assay was carried out using Hoechst 33258. 6 × 10^5 mixed glial cells were seeded in a six well plate. After 24 h the media was eliminated, and cell cultures washed with PBS. Then, they were washed with acetic acid/methanol solution 50:50, again washed with PBS and incubated 10 min with a fixative solution. After this, cells were cleaned with distilled water and incubated light protected for 30 min at rt with Hoechst (1 µg/mL). Finally, the dye was discarded, and cells washed with water. Glycerol solution was added and cells were observed under an Olympus microscope. The cell area and circularity were measured using ImageJ as image analyzing software. Area and circularity were calculated as percentage using the following formula:(1) Area or circularity =area or circularity of treated cells/area or curcularity of control cells × 100

In data set [3] the test system is mixed glial cells. Kind of data set: Griess assay (nitrite production) in mixed glial cells. The settings on record: 30 min. As for the experimental part: To test the antioxidant capacity of these new molecules Griess assay was performed. The Griess Reagent System is based in the conversion of sulphanilamide into an azo-compound with the presence of N-1-napthylenediamide dihydrochloride (NED) under acidic condition. 1.7 × 10^4 mixed glial cells were cultured in 98 μL of the specific medium in a 96 well plate overnight. After 24 h the media from each well of the cell culture was transferred into a 96 well plate and then 50 µL of the sulphanilamide solution was added to each well. After 5–10 min of incubation at room temperature (rt), 50 µL of the NED Solution were dispensed to all wells and they were incubated at rt for other 5–10 min. Absorbance was measured within 30 min in the plate reader GENiosPro with a filter between 520 nm and 550 nm. This experiment was performed 3–5 replicates. Concentration of NO¬¬¬¬2¯ in each sample was determined by comparison to a Nitrite standard reference curve.
A general note: The Griess reaction detects nitrite, a stable product of nitric oxide.

Data set [4] relates to mixed glial cells. Kind of data set: CellTiter 96 AQueous One (MTS) cell viability, ligands alone, mixed glial cells. The settings on record: for toxicity in vitro (cell viability): compared with CCPA and ZM241385; for cell viability vs. control: ligand alone. How it is done:
(§2) Newborn male Wistar rats were sacrificed and mixed glial cell cultures were obtained from the cerebral cortices. Cerebral cortices were dissected, and meninges were cleared away. Tissues were treated with trypsin solution (trypsin 0.05% (w/v) trypsin-EDTA 5 mM) for 25 min at 37 °C. The tissue was fully disaggregated by pipetting and the dissociated cells were seeded in a 6-well plate with Dulbecco’s modified Eagle’s/High glucose medium enriched with 100 U/mL penicillin, 100 µg/mL streptomycin and 10% FBS. Fresh medium was changed the next day and then every 3 days decreasing the quantity of FBS. All experiments were carried out after 7–9 days of plating.
(§3) Mixed glial cell cultures were divided into 2 groups, one to study A1AR partial agonists and another for A2AAR antagonists. Cells from the first group were pre-treated with 2 µL at three different concentrations of C1 for 15, 30 or 60 min and then with further addition of a pro-inflammatory cocktail of cytokines (TNF-α, 20 ng/mL; IL-1β, 20 ng/mL; IFN-γ 20 ng/mL) for 48 h. […] To study C2 cells were pre-treated with the same CK cocktail for 48 h and then with 2 µL of C2 at three different concentrations for 15, 30, or 60 min (Scheme 1). ZM241385, a well known A2AAR antagonist, was used as reference compound. Furthermore, ligands and CK were tested alone for 15, 30 or 60 min and 48 h respectively.
as §1

Data set [5] deals with mixed glial cells. Kind of data set: MTS cell viability in cytokine cocktail (CK) inflammatory model, mixed glial cells. How it is done: as §2, §3, §1

This note sets out measurements from publication PMC7409197, “Adenosine Receptors as Neuroinflammation Modulators: Role of A1 Agonists and A2A Antagonists” (Cells, 2020).

Each structure is given as a SMILES string.

As to `CCn1c(Cl)nc2c(N)nc(OCCc3ccccc3)nc21` [Compound C2, 8-chloro-9-ethyl-2-phenethoxyadenine], the “protection of neurons against neuroinflammatory insult (cell viability)” value in data set [1] (C1 5.5 µM, C2 10 nM) was “beneficial effects in protecting neurons”. Besides, the “cell viability, combination with A2AAR antagonist SCH58261” value in data set [1] (neurons, C2 10 nM, SCH58261 50 nM) is on record as “did not exhibited a synergic effect”. For the same molecule, the “cell area and circularity (Hoechst), effect against CK aggression” value in data set [2] is listed as “protective effect”. Besides, the “nitrite levels in presence of CK cocktail” value in data set [3] (10 nM, after CK cocktail) is listed as “able to decrease the high nitrite levels”. In addition, in data set [3] (10 nM, alone), the “levels of nitrite produced” value is “lower than those obtained in control”. The “toxicity in vitro (cell viability)” value in data set [4] is given as “no toxic effect”. Moreover, the “cell viability vs. control” value is 110 ± 2.7% in data set [4] (10 nM, 15 min); 127 ± 3.1% in data set [4] (10 nM, 30 min); 125 ± 4.3% in data set [4] (10 nM, 60 min); ~80% in data set [4] (60 nM, tendency to toxicity); 138 ± 1.7% in data set [5] (CK cocktail 20 ng/mL 48 h, then ligand 5 nM for 15 min); 233 ± 3.4% in data set [5] (CK cocktail 20 ng/mL 48 h, then ligand 10 nM for 30 min).
On to `OC[C@H]1O[C@@H](n2cnc3c(NC4CCCC4)nc(Cl)nc32)C[C@@H]1O` [Compound C1, 2-chloro-N^6-cyclopentyl-2′-deoxyadenosine], for which the “protection of neurons against neuroinflammatory insult (cell viability)” value in data set [1] (C1 5.5 µM, C2 10 nM) was “beneficial effects in protecting neurons”. Besides, the “cell viability, effect against A1AR antagonist DPCPX” value in data set [1] (neurons, C1 5.5 µM, DPCPX 100 nM, in presence of CK) was “partially counteract the effect of DPCPX”. Further, the “cell area and circularity (Hoechst), effect against CK aggression” value in data set [2] is “protective effect”. In addition, in data set [3] (5.5 µM, alone and in combination with CK), the “antioxidant activity (Griess)” value was “did not show any antioxidant activity”. The “toxicity in vitro (cell viability)” value in data set [4] is “no toxic effect”. The “cell viability vs. control” value is 116 ± 1.7% in data set [4] (5.5 µM, 30 min); 117 ± 1.3% in data set [4] (30 µM, 15 min); 113 ± 3.1% in data set [5] (pre-treatment 5.5 µM for 30 min, then CK cocktail 48 h). The “prevention of CK aggression (cell viability, words)” value in data set [5] (pre-treatment before CK cocktail 48 h, C1 2-30 µM, CCPA 10 nM 30 min) was “able to prevent the CK aggression”.
